Assay results reported in patent publication EP2758383B1, “AROMATIC AMIDOTHIAZOLES, COSMETIC AND DERMATOLOGICAL PREPARATIONS CONTAINING THEM, AND THEIR USE FOR THE TREATMENT AND PROPHYLAXIS OF UNWANTED PIGMENTATION OF THE SKIN” (priority 2011, dated 2013).
Like-named read-outs stand apart in the source and are kept apart here.

Molecular target: T1, humane Tyrosinase (Homo sapiens, UniProt P14679)
T1 sequence (P14679 19-529): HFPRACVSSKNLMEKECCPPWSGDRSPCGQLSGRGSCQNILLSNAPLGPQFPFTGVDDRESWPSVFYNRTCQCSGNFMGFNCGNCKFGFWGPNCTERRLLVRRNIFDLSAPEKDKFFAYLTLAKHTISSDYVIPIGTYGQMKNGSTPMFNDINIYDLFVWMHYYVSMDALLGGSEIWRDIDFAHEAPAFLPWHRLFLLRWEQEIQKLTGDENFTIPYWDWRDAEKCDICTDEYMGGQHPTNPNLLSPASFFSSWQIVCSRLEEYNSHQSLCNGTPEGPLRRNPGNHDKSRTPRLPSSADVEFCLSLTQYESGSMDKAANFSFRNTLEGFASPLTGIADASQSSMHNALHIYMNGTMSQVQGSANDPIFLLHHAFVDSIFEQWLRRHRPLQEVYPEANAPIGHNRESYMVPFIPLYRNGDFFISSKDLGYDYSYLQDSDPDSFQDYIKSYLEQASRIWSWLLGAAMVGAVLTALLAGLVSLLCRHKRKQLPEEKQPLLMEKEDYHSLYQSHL
Assay: Enzyme test: conversion of L-DOPA to L-dopaquinone by human tyrosinase, MBTH detection, absorption at 490 nm
Type: biochemical
Details: read-out: Inhibition (% der Kontrolle)

[1] = Konzentration 10 µg/mL, substrate L-DOPA

From the text: Die Wirksamkeit der Thiazole wurde mit einem Enzymtest belegt, in der Umsatz von L-DOPA zu L-Dopachinon durch eine humane Tyrosinase gemessen wurde.

## O=C(Nc1nc(-c2ccc(O)cc2O)cs1)c1ccc(CO)nc1 [N-(4-(2,4-dihydroxyphenyl)thiazol-2-yl)-6-(hydroxymethyl)nicotinamid]
[1]
  inhibition at 10 µg/mL: 98%

## O=C(Nc1nc(-c2ccc(O)cc2O)cs1)c1ccccc1 [N-(4-(2,4-dihydroxyphenyl)thiazol-2-yl)benzamid]
[1]
  inhibition at 10 µg/mL: 98%

## c1ccc(Nc2nc(-c3ccncc3)cs2)nc1 [N-(pyridin-2-yl)-4-(pyridin-4-yl)thiazol-2-amin, reference compound]
[1]
  inhibition at 10 µg/mL: 16%

## O=C(Nc1nc(-c2ccc(O)cc2O)cs1)c1ccccn1 [N-(4-(2,4-dihydroxyphenyl)thiazol-2-yl)picolinamid]
[1]
  inhibition at 10 µg/mL: 82%

## N#Cc1ccc(C(=O)Nc2nc(-c3ccc(O)cc3O)cs2)cc1 [4-cyano-N-(4-(2,4-dihydroxyphenyl)thiazol-2-yl)benzamid]
[1]
  inhibition at 10 µg/mL: 96%

## O=C(Nc1nc(-c2ccc(O)cc2O)cs1)c1ccc(CO)cc1 [N-(4-(2,4-dihydroxyphenyl)thiazol-2-yl)-4-(hydroxymethyl)benzamid]
[1]
  inhibition at 10 µg/mL: 99%

## CC(C)(O)c1ccc(C(=O)Nc2nc(-c3ccc(O)cc3O)cs2)cc1 [N-(4-(2,4-dihydroxyphenyl)thiazol-2-yl)-4-(2-hydroxypropan-2-yl)benzamid]
  inhibition at 10 µg/mL: 96%

## C=CCN(C1=NC(C)(C)C(=C)S1)c1ccc(C)cc1C [N-allyl-N-(2,4-dimethylphenyl)-4,4-dimethyl-5-methylene-4,5-dihydrothiazol-2-amin, reference compound]
[1]
  inhibition at 10 µg/mL: 13%

## O=C(Nc1nc(-c2ccc(O)cc2O)cs1)c1ccc2c(c1)OCO2 [N-(4-(2,4-dihydroxyphenyl)thiazol-2-yl)benzo[d][1,3]dioxole-5-carboxamide]
[1]
  inhibition at 10 µg/mL: 92%

## CC(=O)c1ccc(C(=O)Nc2nc(-c3ccc(O)cc3O)cs2)cc1 [4-acetyl-N-(4-(2,4-dihydroxyphenyl)thiazol-2-yl)benzamid]
[1]
  inhibition at 10 µg/mL: 92%

## CC(C)(C)c1ccc(C(=O)Nc2nc(-c3ccc(O)cc3O)cs2)cc1 [4-(tert-butyl)-N-(4-(2,4-dihydroxyphenyl)thiazol-2-yl)benzamid]
[1]
  inhibition at 10 µg/mL: 27%

## CN(c1ccccc1)c1nc(-c2ccncc2)cs1 [N-methyl-N-phenyl-4-(pyridin-4-yl)thiazol-2-amin, reference compound]
[1]
  inhibition at 10 µg/mL: 13%
